Laboratory results as given in US7683162B2, “Process of preparing a crystalline azithromycin monohydrate” (Taro Pharmaceutical Industries Limited, priority 2004, dated 2010).
Read-outs that look alike come from different tables or passages of the source. Blank lines part the entries; values can stand above or below the compound they belong to.

How the values were obtained:
[1] = Storage of crystalline azithromycin monohydrate under accelerated conditions (40° C. and 75% relative humidity); assay type: physicochemical
Description: (§1) The drying step in step (d) may be performed in stages. To achieve the desired water content, the isolated precipitate may first be dried for a period of time; and then dried for a subsequent period of time. Water content may be conveniently determined at different stages to ensure that a specified water content is achieved. Drying time and conditions may be easily optimized by one skilled in the art. Water content determination is in accordance to U.S. Pharmacopeia (USP) <921> Method I, which is incorporated herein by reference in its entirety.
(§2) (i) Chromatographic Conditions—The purity of a crystalline azithromycin monohydrate sample was determined using a high performance liquid chromatography (HPLC) instrument with a variable wavelength detector. The chromatographic conditions were: (i) Column—Xterra RP-18, endcapped 5 μm, 250×4.6 mm or equivalent; (ii) Flow Rate—1.0 mL/min; (iii) Column temperature—28° C.; (iv) Detection—UV at 215 nm; (v) Injection volume—20 μL; (vi) Run time—30 min; and, (vii) Mobile phase,Borate buffer pH=9.5: Acetonitrile (1:1, v/v). The mobile phase was prepared by adding NaOH (5N) to a solution of boric acid (about 1.2 grams) in water (1,000 mL; HPLC grade) to obtain a pH of 9.5.
(§3) (ii) Standard Solution for Purity Determination—A standard solution for purity determination was prepared by dissolving azithromycin monohydrate (about 50 mg, accurately weighed), in sufficient acetonitrile to fill a 25 mL volumetric flask. The azithromycin monohydrate used in the standard solution was prepared according to the procedure set forth in U.S. Pat. No. 6,268,489.
(§4) (iii) Preparation of Crystalline Azithromycin Monohydrate Sample Solution—A crystalline azithromycin monohydrate sample solution was prepared by transferring approximately 50 mg of the crystalline azithromycin monohydrate sample to be assayed into a 25 mL volumetric flask and diluting to volume with acetonitrile.
(§5) (iv) HPLC Protocol—The retention time of azithromycin was about 20 minutes. The retention time of azaerythromycin was about 13 minutes. Six replicates of the standard solution for determination of impurities, and 5 replicates of the standard solution for purity determination were injected into the HPLC system. The relative standard deviation of 5 replicate injections of the standard solution for purity determination was not more than 2.0%. The relative standard deviation of 6 replicate injections of the standard solution for determination of impurities was not more than 5.0%. If necessary, the mobile phase composition and/or flow rate were adjusted to meet the chromatographic parameters. The limit of detection for azaerythromycin was 0.04%. The limit of quantitation for azaerythromycin was 0.04%. The limit of detection for azithromycin was 0.04%. The limit of quantitation for azithromycin was 0.05%.
(§6) [formula] The terms are defined as follows: (i) Wst=Weight of standard in mg; (ii) Wsm=Weight of sample in mg; (iii) Ssm=Peak area of azithromycin obtained from sample solution; (iv) Sst=Average peak area of azithromycin obtained from standard solution for purity determination; (v) Pst=Purity of azithromycin standard in percent; and (vi) Msm=Water content of sample in percent. (B) Determination of Ethanol Content of Crystalline Azithromycin Monohydrate
(§7) The hygroscopicity of a crystalline azithromycin monohydrate was determined by monitoring its water content during storage. Specifically, the water content of the crystalline azithromycin monohydrate was determined at time zero and at various times thereafter during storage (e.g., 1, 2, and 3 months) under ambient conditions and accelerated conditions.

[2] = Storage of crystalline azithromycin monohydrate under ambient conditions (25° C. and 60% relative humidity); assay type: physicochemical
Description: as §1, §2, §3, §4, §5, §6, §7

[3] = cited from earlier work; for hygroscopicity (in words) / stability (in words): as described in the cited patent or publication
[4] = 3 months at 40° C. and 75% relative humidity
[5] = 40° C., 75% relative humidity, 0 months
[6] = 40° C., 75% relative humidity, 1 month
[7] = 40° C., 75% relative humidity, 2 months
[8] = 40° C., 75% relative humidity, 3 months
[9] = 3 months at 25° C. and 60% relative humidity
[10] = 25° C., 60% relative humidity, 0 months
[11] = 25° C., 60% relative humidity, 3 months

degradation after storage ([1]; 3 months (at least about 3 months), 40° C. and 75% relative humidity): less than 2 % (w/w)
hygroscopicity (in words) [1, 4]: non-hygroscopic
stability (in words) [1, 4]: stable
water content after storage (in words) ([1]; 3 months under accelerated conditions): remained substantially unchanged
Appearance [1, 5]: White
Azaerythromycin [1, 5]: 0.3%
Other Impurities, RRT = 0.23 [1, 5]: % = 0.10
Other Impurities, RRT = 0.26 [1, 5]: % = 0.20
Other Impurities, RRT = 0.34 [1, 5]: % = 0.10
Other Impurities, RRT = 0.42 [1, 5]: % = 0.30
Other Impurities, RRT = 0.45 [1, 5]: % = 0.07
Other Impurities, RRT = 0.48 [1, 5]: % = 0.20
Other Impurities, RRT = 1.45 [1, 5]: % = 0.05
Other Impurities, RRT = 1.50 [1, 5]: % = 0.20
Other Impurities, RRT = 1.56 [1, 5]: % = 0.10
Purity [1, 5]: 100.10%
Total Impurities [1, 5]: 1.60%
Water content [1, 5]: 5.9%
pH [1, 5]: 10.4
Appearance [1, 6]: White
Azaerythromycin [1, 6]: 0.4%
Other Impurities, RRT 0.23 [1, 6]: 0.23, 0.10%
Other Impurities, RRT 0.26 [1, 6]: 0.26, 0.20%
Other Impurities, RRT 0.35 [1, 6]: 0.35, 0.10%
Other Impurities, RRT 0.38 [1, 6]: 0.38, 0.05%
Other Impurities, RRT 0.43 [1, 6]: 0.43, 0.30%
Other Impurities, RRT 0.46 [1, 6]: 0.46, 0.08%
Other Impurities, RRT 0.48 [1, 6]: 0.48, 0.20%
Other Impurities, RRT 1.50 [1, 6]: 1.50, 0.20%
Other Impurities, RRT 1.56 [1, 6]: 1.56, 0.20%
Purity [1, 6]: 101.00%
Total Impurities [1, 6]: 1.80%
Water content [1, 6]: 5.9%
pH [1, 6]: 10.0
Appearance [1, 7]: White
Azaerythromycin [1, 7]: 0.3%
Other Impurities, RRT 0.23 [1, 7]: 0.23, 0.10%
Other Impurities, RRT 0.25 [1, 7]: 0.25, 0.20%
Other Impurities, RRT 0.34 [1, 7]: 0.34, 0.10%
Other Impurities, RRT 0.42 [1, 7]: 0.42, 0.40%
Other Impurities, RRT 0.45 [1, 7]: 0.45, 0.05%
Other Impurities, RRT 0.48 [1, 7]: 0.48, 0.20%
Other Impurities, RRT 1.50 [1, 7]: 1.50, 0.20%
Other Impurities, RRT 1.56 [1, 7]: 1.56, 0.10%
Purity [1, 7]: 99.50%
Total Impurities [1, 7]: 1.70%
Water content [1, 7]: 5.8%
pH [1, 7]: 10.3
Appearance [1, 8]: White
Azaerythromycin [1, 8]: 0.3%
Other Impurities, RRT 0.14 [1, 8]: 0.14, 0.20%
Other Impurities, RRT 0.24 [1, 8]: 0.24, 0.10%
Other Impurities, RRT 0.35 [1, 8]: 0.35, 0.20%
Other Impurities, RRT 0.43 [1, 8]: 0.43, 0.40%
Other Impurities, RRT 0.46 [1, 8]: 0.46, 0.07%
Other Impurities, RRT 0.49 [1, 8]: 0.49, 0.20%
Other Impurities, RRT 0.81 [1, 8]: 0.81, 0.06%
Other Impurities, RRT 0.85 [1, 8]: 0.85, 0.05%
Other Impurities, RRT 1.50 [1, 8]: 1.50, 0.20%
Other Impurities, RRT 1.55 [1, 8]: 1.55, 0.08%
Purity [1, 8]: 98.10%
Total Impurities [1, 8]: 1.90%
Water content [1, 8]: 5.7%
pH [1, 8]: 10.3
degradation after storage ([1]; at least 3 months at 40° C. and 75% relative humidity): less than 2%
change in the water content after storage ([1]; at least about 3 months at 40° C. and 75% relative humidity): less than 5%
hygroscopicity (in words) [2, 9]: non-hygroscopic
stability (in words) [2, 9]: stable
water content after storage (in words) ([2]; 3 months under ambient conditions): remained substantially unchanged
degradation products present after storage ([2]; 3 months, ambient (room temperature)): less than 2 % (w/w)
Appearance [2, 10]: White crystalline
Azaerythromycin [2, 10]: 0.3%
Other Impurities, RRT = 0.23 [2, 10]: RRT = 0.23, % = 0.10
Other Impurities, RRT = 0.26 [2, 10]: RRT = 0.26, % = 0.20
Other Impurities, RRT = 0.34 [2, 10]: RRT = 0.34, % = 0.10
Other Impurities, RRT = 0.42 [2, 10]: RRT = 0.42, % = 0.30
Other Impurities, RRT = 0.45 [2, 10]: RRT = 0.45, % = 0.07
Other Impurities, RRT = 0.48 [2, 10]: RRT = 0.48, % = 0.20
Other Impurities, RRT = 1.45 [2, 10]: RRT = 1.45, % = 0.05
Other Impurities, RRT = 1.50 [2, 10]: RRT = 1.50, % = 0.20
Other Impurities, RRT = 1.56 [2, 10]: RRT = 1.56, % = 0.10
Purity [2, 10]: 100.10%
Total Impurities [2, 10]: 1.60%
Water content [2, 10]: 5.9%
pH [2, 10]: 10.4
Appearance [2, 11]: White crystalline
Azaerythromycin [2, 11]: 0.3%
Other Impurities, RRT = 0.10 [2, 11]: RRT = 0.10, % = 0.20
Other Impurities, RRT = 0.24 [2, 11]: RRT = 0.24, % = 0.10
Other Impurities, RRT = 0.35 [2, 11]: RRT = 0.35, % = 0.10
Other Impurities, RRT = 0.43 [2, 11]: RRT = 0.43, % = 0.30
Other Impurities, RRT = 0.46 [2, 11]: RRT = 0.46, % = 0.07
Other Impurities, RRT = 0.49 [2, 11]: RRT = 0.49, % = 0.20
Other Impurities, RRT = 0.81 [2, 11]: RRT = 0.81, % = 0.10
Other Impurities, RRT = 0.84 [2, 11]: RRT = 0.84, % = 0.08
Other Impurities, RRT = 1.50 [2, 11]: RRT = 1.50, % = 0.20
Other Impurities, RRT = 1.55 [2, 11]: RRT = 1.55, % = 0.10
Purity [2, 11]: 98.70%
Total Impurities [2, 11]: 1.80%
Water content [2, 11]: 5.8%
pH [2, 11]: 10.2
Compound: CC[C@H]1OC(=O)[C@H](C)[C@@H](O[C@H]2C[C@@](C)(OC)[C@@H](O)[C@H](C)O2)[C@H](C)[C@@H](O[C@@H]2O[C@H](C)C[C@H](N(C)C)[C@H]2O)[C@](C)(O)C[C@@H](C)CN(C)[C@H](C)[C@@H](O)[C@]1(C)O.O [crystalline azithromycin monohydrate]

Compound: CC[C@H]1OC(=O)[C@H](C)[C@@H](OC2CC(C)(OC)C(O)C(C)O2)[C@H](C)[C@@H](OC2OC(C)CC(N(C)C)C2O)[C@](C)(O)C[C@@H](C)CN(C)[C@H](C)C(O)[C@]1(C)O (stereo partly drawn) [azithromycin, 9-deoxo-9a-aza-9a-methyl-9a-homoerythromycin A]
stability under acidic conditions ([3]; acidic conditions, U.S. Pat. No. 6,586,576 B2): unstable

Compound: CC[C@H]1OC(=O)[C@H](C)[C@@H](O[C@H]2C[C@@](C)(OC)[C@@H](O)[C@H](C)O2)[C@H](C)[C@@H](O[C@@H]2O[C@H](C)C[C@H](N(C)C)[C@H]2O)[C@](C)(O)C[C@@H](C)CN(C)[C@H](C)[C@@H](O)[C@]1(C)O [azithromycin dihydrate]
hygroscopicity (in words) [3]: non-hygroscopic
stability (in words) [3]: stable

Compound: CC[C@H]1OC(=O)[C@H](C)[C@@H](O[C@H]2C[C@@](C)(OC)[C@@H](O)[C@H](C)O2)[C@H](C)[C@@H](O[C@@H]2O[C@H](C)C[C@H](N(C)C)[C@H]2O)[C@](C)(O)C[C@@H](C)CN(C)[C@H](C)[C@@H](O)[C@]1(C)O [azithromycin monohydrate]
hygroscopicity (in words) [3]: hygroscopic
stability (in words) [3]: unstable

Compound: CC[C@H]1OC(=O)[C@H](C)[C@@H](O[C@H]2C[C@@](C)(OC)[C@@H](O)[C@H](C)O2)[C@H](C)[C@@H](O[C@@H]2O[C@H](C)C[C@H](N(C)C)[C@H]2O)[C@](C)(O)C[C@@H](C)CN(C)[C@H](C)[C@@H](O)[C@]1(C)O.O [azithromycin monohydrate form]
hygroscopicity (in words) [3]: non-hygroscopic
stability (in words) [3]: stable
